Results on two substances are retold here after US20240317826A1, “COMPOSITIONS AND METHODS FOR TREATING AND/OR I[…] AGENT FOR TREATING HIV-1 INFECTIONS” (priority 2021, published 2024).

Entries after “also recorded” stand apart in the source; their conditions may differ.

In test [1] the test system is INI1 incorporation into HIV-1 virions. In words: Immunoblot of virions for incorporation of INI1. The conditions noted are these: Western analysis of concentrated virions. In kind it is cell-based. The source says:
FIG. 12A-FIG. 12C show effects of stapled peptides on virion morphogenesis and incorporation of INI1. […] The middle panel is the expanded version and the lower panel represents the carton of the two viral particles from the middle panel. Note the empty capsid shell and eccentric electron dense material, typical of morphologically defective virions. […] About 200 virions each were scored to quantify four different types of morphological forms—Conical (Co), Eccentric (Ec), Immature (Im) and Unclear (Uc).
We tested the incorporation of INI1 into the virions. Electron microscopy analysis of ˜200 particles and Western analysis of concentrated virions were carried out to determine the presence or absence of INI1 (FIG. 12b).

Test [2] has as its system reactivated HIV-1 from latent cells (J1.1). Briefly: Co-culture of PMA-reactivated latent J1.1 cells with CEM-GFP cells. The test is classed as cell-based. The arrangement: inhibition of infection of CEM-GFP cells by reactivated virus (green cells): dose or concentration left out as unconfirmed. The conditions noted are these: J1.1 + CEM-GFP co-culture; for inhibition of infection of CEM-GFP cells by reactivated virus (green cells): PMA, images day 2 postinduction; for inhibition of virus spread, p24 levels in culture: p24 on day 5. The source says:
FIG. 13A-FIG. 13C show staple peptides inhibit infection of reactivated HIV-1 from latent cells. […] Cells harboring latent virus (J1.1) were co-cultured with CEM-GFP cells in the presence and absence of stapled peptides. Addition of PMA reactivates HIV-1 from latent cells which infect CEM cells to induce expression of GFP. […] Images were taken on day 2 postinduction. […] Experiments was done in triplicates and the graph represents mean+/−SEM.
As a proof-of-concept to test if the stapled peptides inhibit spreading of the reactivated latent viruses, we used an in vitro cell line model of latency, J1.1 cells. J1.1 have a single latently integrated provirus which is activated using LRAs. We activated the latently integrated provirus by the addition of PMA and then mixed them with CEM-GFP cells in the cultures. Infection of CEM-GFP cells with virus produced from J1.1 upon reactivation turns the CEM-GFP T-cells green (FIGS. 13a and b right side panels). We tested the effect of addition of stapled peptides in this co-culture experiment (FIGS. 13a and b middle and left side panels). […] We furthermore determined the p24 released from the culture supernatant as a measure of the virus production in the presence and absence of stapled peptides (FIG. 13c).

Test [3] addresses T1, IN-TAR RNA interaction (Human immunodeficiency virus type 1 group M subtype B, UniProt P04585).
T1 construct: made in house; host or cells: bacteria (E. coli inferred from the pGEX vector)
In words: Alpha interaction assay: effect of stapled peptides on IN-TAR RNA interaction. The test is classed as binding, HIV-1. The conditions noted are these: in vitro. The protocol:
FIG. 8A-FIG. 8D show quantitative alpha interaction assay to determine the effect of stapled peptides on the interaction of IN and IN-CTD with INI1 and INI1183-304 or TAR RNA. […] Fixed concentrations of GST-IN, 6His-INI1, and TAR RNA were incubated with increasing concentration of stapled peptides and the interaction was detected as Alpha Score. The IC50 values were determined by fitting the data to a four-parameter dose-response curve using Graph Pad prism. All the graphs represent the average of three independent experiments (Mean+/−SEM).
AlphaScreen proximity assay to detect the protein-protein and protein-RNA interactions. AlphaScreen assay was carried out using PerkinElmer Alpha-Lisa-6His Acceptor beads (Catalogue #AL128C), Alpha-Screen-GST donor beads (Catalogue #6765300), GST-tagged and His-tagged proteins for protein-protein interactions; and Alpha-Screen Streptavidin donor beads (Catalogue #6760002 S), Alpha-Lisa-GST acceptor beads (Catalogue #AL110C), Biotin-labeled RNA and GST-tagged proteins for protein-RNA interactions. The reaction was carried out according to the manufacturer's protocol in a reaction buffer contacting (25 mM HEPES pH 7.4, 100 mM NaCl (or 500 mM NaCl), 1 mM DTT, 1 mM MgCl2 and BSA 1 mg ml/ml). The mixture of proteins or protein and RNA were incubated for 1 hr at room temperate with shaking in a multi micro-plate shaker and then 20 ag ml/ml accepter beads were added and incubated for additional 1 h with shaking. Finally, 20 ag ml^−1 of donor beads were added and further incubated for 1 hr. The Alpha score readings were measured using Alpha-compatible Envision 2105 multi-plate reader (Perkin-Elmer). All the experiments related to this method were carried out 3 to 5 times and data were analyzed by using Graph Pad Prism 9 version 9.0.0 (GraphPad Software, CA). The RNA sequences used in this assay are listed in the Table 6d and were obtained from Integrated DNA technology.
These peptides were tested for their ability to disrupt the interaction between IN-INI1 and IN-TAR RNA in vitro.

For test [4], the system named is HIV-1NL4-3. In words: Multiday HIV-1 replication assay in CEM-GFP cells. To be noted: CEM-GFP cells infected with HIV-1NL4-3; 1 and 5 micromolar peptide; GFP expression and p24 in culture supernatants. In kind it is cell-based. The source says: FIG. 9A-FIG. 9C show an inhibition of HIV-1 replication by Stapled peptides in a multiday replication assay in CEM-GFP cells. […] FIG. 9B and FIG. 9C show images representing the expression of GFP in CEM GFP cells in presence or absence of 1 and 5 micromolar Stapled peptides or DMSO control. FIG. 9D and FIG. 9E show p24 ELISA analysis of culture supernatants from CEM-GFP cells from panels FIG. 9B and FIG. 9C samples. The CEM-GFP cells were infected with HIV-1NL4-3 and treated with stapled peptides. Culture supernatants were collected on multiple days as indicated and p24 analysis was carried out.
To determine if the stapled peptides can inhibit HIV-1 replication in cell culture, we used CEM-GFP cell lines, which harbor LTR-GFP as a reporter. HIV-1 infection of these cells activates GFP expression.

On to “lys-Leu-Met-Thr-Pro-Glu-Met-Phe-S5-Glu-Ile-Leu-S5-Cys-Asp-Leu-Asn [SP38]”, for which the “incorporation of INI1 into virions” value in test [1] is given as “not incorporated; also recorded: lack of INI1 incorporation into virions”. In addition, in test [2], the “inhibition of infection of CEM-GFP cells by reactivated virus (green cells)” value is “inhibited the infection”; the “inhibition of virus spread, p24 levels in culture” value was “inhibited the virus spread; also recorded: inhibits p24 levels in induced and uninduced conditions”. Besides, the “IC50, inhibition of IN-TAR RNA interactions” value in test [3] was “low nanomolar”. In addition, in test [4], the “inhibition of HIV-1 propagation/replication” value is “Inhibits HIV-1 Replication at Low Micromolar Concentrations; also recorded: potently inhibited”.
Turning to “lys-Leu-Met-Thr-Pro-Glu-Met-Phe-S5-Glu-Ile-Leu-S5-Cys-Gly-Leu-Asn [SP83]”, the “incorporation of INI1 into virions” value in test [1] is given as “incorporated”. Further, in test [2], the “inhibition of infection of CEM-GFP cells by reactivated virus (green cells)” value is recorded as “not” and the “inhibition of virus spread, p24 levels in culture” value was “not”. Moreover, the “inhibition of IN-TAR RNA interactions” value in test [3] is given as “not”. The “inhibition of HIV-1 propagation/replication” value in test [4] is given as “not”.
